We go through five compounds from publication PMC10175918 (Communications Biology, 2023).

Like-named read-outs stand apart in the source and are kept apart here.

Assay in all cases: TGFα-shedding assay-based GPCR screening with chimeric Gα subunit proteins
Format in all cases: cell-based

The target of experiment [1] is T1, 348 GPCRs (Homo sapiens, UniProt O00574).
T1 construct: expressed in transfected cells; host or cells: HEK293A

Experiment [2] addresses T2, 348 GPCRs (Homo sapiens, UniProt Q9UJ42).
T2 construct: expressed in transfected cells; host or cells: HEK293A
Particulars: 10µM, Favipiravir 100μM.

Experiment [3] deals with 348 GPCRs (Homo sapiens, UniProt P25103). Particulars: 10µM, Favipiravir 100μM.
Experiment [4] concerns the target T3, 348 GPCRs (Homo sapiens, UniProt Q9NSD7).
T3 construct: expressed in transfected cells; host or cells: HEK293A
T3 sequence (Q9NSD7 1-469): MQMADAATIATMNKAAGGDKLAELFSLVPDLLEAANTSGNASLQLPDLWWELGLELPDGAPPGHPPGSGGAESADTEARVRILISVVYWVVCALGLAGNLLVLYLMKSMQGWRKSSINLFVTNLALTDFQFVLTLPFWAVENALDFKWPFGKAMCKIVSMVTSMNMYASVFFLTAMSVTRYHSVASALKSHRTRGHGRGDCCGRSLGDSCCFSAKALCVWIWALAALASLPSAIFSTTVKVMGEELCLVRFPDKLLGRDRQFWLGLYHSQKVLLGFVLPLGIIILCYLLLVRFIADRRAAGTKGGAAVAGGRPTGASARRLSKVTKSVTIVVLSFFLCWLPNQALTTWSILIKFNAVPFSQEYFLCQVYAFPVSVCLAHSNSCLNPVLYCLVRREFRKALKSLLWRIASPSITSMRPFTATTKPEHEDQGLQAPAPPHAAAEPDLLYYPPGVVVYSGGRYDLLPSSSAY
The note with it: RXFP3 (relaxin/insulin-like family peptide receptor 3); 10µM, Favipiravir 100μM.

The target in experiment [5] is T4, 348 GPCRs (Homo sapiens, UniProt Q969V1).
T4 construct: expressed in transfected cells; host or cells: HEK293A
The note with it: 10µM, Favipiravir 100μM.

The target of experiment [6] is T5, 348 GPCRs (Homo sapiens, UniProt Q9Y5N1).
T5 construct: expressed in transfected cells; host or cells: HEK293A
The note with it: 10µM, Favipiravir 100μM.

Experiment [7] addresses T6, 348 GPCRs (Homo sapiens, UniProt Q9H1Y3).
T6 construct: expressed in transfected cells; host or cells: HEK293A
Particulars: 10µM, Favipiravir 100μM.

The target of experiment [8] is T7, 348 GPCRs (Homo sapiens, UniProt Q49SQ1).
T7 construct: expressed in transfected cells; host or cells: HEK293A
T7 sequence (Q49SQ1 1-333): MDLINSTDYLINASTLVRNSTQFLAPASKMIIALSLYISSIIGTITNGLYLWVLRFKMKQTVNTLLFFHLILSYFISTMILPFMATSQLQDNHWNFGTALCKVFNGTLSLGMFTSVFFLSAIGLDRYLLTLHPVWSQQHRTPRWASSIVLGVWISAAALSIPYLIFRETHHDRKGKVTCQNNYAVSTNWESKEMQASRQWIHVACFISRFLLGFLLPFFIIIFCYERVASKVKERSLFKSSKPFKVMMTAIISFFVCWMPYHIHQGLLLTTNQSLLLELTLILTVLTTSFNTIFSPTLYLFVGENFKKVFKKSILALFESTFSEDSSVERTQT
The note with it: 10µM, Favipiravir 100μM.

The target in experiment [9] is T8, 348 GPCRs (Homo sapiens, UniProt Q9Y5Y4).
T8 construct: expressed in transfected cells; host or cells: HEK293A
T8 sequence (Q9Y5Y4 1-395): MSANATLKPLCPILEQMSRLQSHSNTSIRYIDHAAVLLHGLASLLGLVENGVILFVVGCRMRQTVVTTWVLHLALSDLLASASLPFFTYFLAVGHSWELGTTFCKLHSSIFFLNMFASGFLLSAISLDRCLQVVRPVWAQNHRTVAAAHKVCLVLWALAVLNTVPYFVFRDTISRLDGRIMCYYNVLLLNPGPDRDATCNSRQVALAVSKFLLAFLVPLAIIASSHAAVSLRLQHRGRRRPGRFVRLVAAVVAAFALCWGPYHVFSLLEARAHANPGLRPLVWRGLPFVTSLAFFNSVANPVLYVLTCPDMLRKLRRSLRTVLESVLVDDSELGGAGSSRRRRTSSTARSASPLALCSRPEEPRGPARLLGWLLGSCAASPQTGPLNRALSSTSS
The note with it: 10µM, Favipiravir 100μM.

For experiment [10], the target named is T9, 348 GPCRs (Homo sapiens, UniProt Q9BXC1).
T9 construct: expressed in transfected cells; host or cells: HEK293A
Particulars: 10µM, Favipiravir 100μM.

Experiment [11] addresses T10, 348 GPCRs (Homo sapiens, UniProt P25929).
T10 construct: expressed in transfected cells; host or cells: HEK293A
T10 sequence (P25929 1-384): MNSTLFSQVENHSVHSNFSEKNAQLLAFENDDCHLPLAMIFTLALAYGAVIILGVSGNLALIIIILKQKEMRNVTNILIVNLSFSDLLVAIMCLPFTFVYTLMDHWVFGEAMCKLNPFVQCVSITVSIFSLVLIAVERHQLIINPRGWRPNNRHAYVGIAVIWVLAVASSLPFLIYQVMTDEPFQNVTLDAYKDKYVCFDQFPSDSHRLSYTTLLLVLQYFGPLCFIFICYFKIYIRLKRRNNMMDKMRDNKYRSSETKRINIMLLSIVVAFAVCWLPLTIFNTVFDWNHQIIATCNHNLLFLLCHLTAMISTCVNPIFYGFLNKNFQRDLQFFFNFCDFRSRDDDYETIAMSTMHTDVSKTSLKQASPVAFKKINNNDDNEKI
Particulars: 10µM, Favipiravir 100μM.

[12] abbreviates: GPR160 (G Protein-Coupled Receptor 160), read-out: % GPCR activation compared to TPA.
[13] abbreviates: NK1 (tachykinin receptor 1), read-out: % GPCR activation compared to TPA.
[14] abbreviates: MCHR2 (melanin concentrating hormone receptor 2), read-out: % GPCR activation compared to TPA.
Where [15] appears, read: H3 (histamine receptor H3), read-out: % GPCR activation compared to TPA.
Setting [16] is: OPN3 (opsin 3), read-out: % GPCR activation compared to TPA.
[17] abbreviates: GPR33 (G protein-coupled receptor 33), read-out: % GPCR activation compared to TPA.
Where [18] appears, read: DP2 (prostaglandin D2 receptor 2), read-out: % GPCR activation compared to TPA.
The mark [19] stands for this setting: GPR174 (G-Protein Coupled Receptor 174), read-out: % GPCR activation compared to TPA.
[20] abbreviates: NPY1R (neuropeptide Y receptor Y1), read-out: % GPCR activation compared to TPA.
[21] abbreviates: read-out: % GPCR activation compared to TPA, GPCR CXCR6 (C-X-C motif chemokine receptor 6).
Where [22] appears, read: read-out: % GPCR activation compared to TPA, GPR160 (G Protein-Coupled Receptor 160).
The mark [23] stands for this setting: read-out: % GPCR activation compared to TPA, NK1 (tachykinin receptor 1).
[24] abbreviates: read-out: % GPCR activation compared to TPA, MCHR2 (melanin concentrating hormone receptor 2).
Where [25] appears, read: read-out: % GPCR activation compared to TPA, H3 (histamine receptor H3).
[26] abbreviates: read-out: % GPCR activation compared to TPA, OPN3 (opsin 3).
The mark [27] stands for this setting: read-out: % GPCR activation compared to TPA, GPR33 (G protein-coupled receptor 33).
[28] abbreviates: read-out: % GPCR activation compared to TPA, DP2 (prostaglandin D2 receptor 2).
The mark [29] stands for this setting: read-out: % GPCR activation compared to TPA, GPR174 (G-Protein Coupled Receptor 174).
[30] abbreviates: read-out: % GPCR activation compared to TPA, NPY1R (neuropeptide Y receptor Y1).
Where [31] appears, read: GPCR CXCR6 (C-X-C motif chemokine receptor 6), read-out: % GPCR activation compared to TPA.

Sequence of 348 GPCRs (Homo sapiens, UniProt P25103) (P25103 whole entry): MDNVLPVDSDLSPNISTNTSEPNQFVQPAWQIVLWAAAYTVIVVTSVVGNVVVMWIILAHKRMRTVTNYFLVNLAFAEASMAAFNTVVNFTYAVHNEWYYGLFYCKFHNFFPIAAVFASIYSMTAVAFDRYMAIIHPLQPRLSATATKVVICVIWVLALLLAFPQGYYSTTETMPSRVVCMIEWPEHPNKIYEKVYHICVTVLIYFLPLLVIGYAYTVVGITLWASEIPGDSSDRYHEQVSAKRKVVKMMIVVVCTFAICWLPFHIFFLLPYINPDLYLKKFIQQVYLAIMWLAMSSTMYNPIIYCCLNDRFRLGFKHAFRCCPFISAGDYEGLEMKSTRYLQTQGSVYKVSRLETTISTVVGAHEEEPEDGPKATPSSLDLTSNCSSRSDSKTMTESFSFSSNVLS
T9 sequence (Q9BXC1 whole entry): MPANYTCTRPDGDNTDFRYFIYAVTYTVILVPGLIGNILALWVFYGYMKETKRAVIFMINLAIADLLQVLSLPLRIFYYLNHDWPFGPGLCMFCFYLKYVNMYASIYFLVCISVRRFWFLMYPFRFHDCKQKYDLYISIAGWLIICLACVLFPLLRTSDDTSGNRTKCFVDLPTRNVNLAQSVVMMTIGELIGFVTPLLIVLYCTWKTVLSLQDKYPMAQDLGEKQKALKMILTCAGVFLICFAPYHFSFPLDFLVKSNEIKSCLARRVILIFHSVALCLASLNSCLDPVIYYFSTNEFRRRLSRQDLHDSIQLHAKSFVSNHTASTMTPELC
T2 sequence (Q9UJ42 whole entry): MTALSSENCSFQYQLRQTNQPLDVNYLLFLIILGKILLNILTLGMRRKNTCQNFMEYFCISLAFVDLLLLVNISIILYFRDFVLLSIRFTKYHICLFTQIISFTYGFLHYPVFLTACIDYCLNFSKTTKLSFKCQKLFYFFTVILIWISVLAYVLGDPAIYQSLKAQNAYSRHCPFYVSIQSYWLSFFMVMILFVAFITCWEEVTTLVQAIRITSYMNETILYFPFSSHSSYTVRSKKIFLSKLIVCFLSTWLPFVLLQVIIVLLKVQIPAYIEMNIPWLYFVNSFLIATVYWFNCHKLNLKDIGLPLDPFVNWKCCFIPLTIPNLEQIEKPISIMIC
T4 sequence (Q969V1 whole entry): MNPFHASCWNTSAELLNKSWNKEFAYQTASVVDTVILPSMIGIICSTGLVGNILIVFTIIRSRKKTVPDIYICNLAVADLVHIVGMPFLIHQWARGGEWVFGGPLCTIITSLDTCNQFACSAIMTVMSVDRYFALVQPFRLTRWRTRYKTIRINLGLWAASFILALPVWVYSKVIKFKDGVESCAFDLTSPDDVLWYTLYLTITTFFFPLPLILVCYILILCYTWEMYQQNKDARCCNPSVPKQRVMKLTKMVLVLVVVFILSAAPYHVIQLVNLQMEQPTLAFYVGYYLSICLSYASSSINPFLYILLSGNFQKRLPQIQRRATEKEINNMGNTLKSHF
T1 sequence (O00574 whole entry): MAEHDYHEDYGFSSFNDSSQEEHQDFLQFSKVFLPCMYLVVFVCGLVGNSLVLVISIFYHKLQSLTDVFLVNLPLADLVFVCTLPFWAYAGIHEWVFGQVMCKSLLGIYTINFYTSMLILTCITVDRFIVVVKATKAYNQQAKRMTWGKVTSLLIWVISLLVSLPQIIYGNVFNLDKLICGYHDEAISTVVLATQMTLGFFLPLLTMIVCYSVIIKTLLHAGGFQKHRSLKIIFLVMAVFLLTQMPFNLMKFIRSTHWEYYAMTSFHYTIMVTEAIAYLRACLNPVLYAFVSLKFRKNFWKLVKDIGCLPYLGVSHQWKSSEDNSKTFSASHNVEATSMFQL
T6 sequence (Q9H1Y3 whole entry): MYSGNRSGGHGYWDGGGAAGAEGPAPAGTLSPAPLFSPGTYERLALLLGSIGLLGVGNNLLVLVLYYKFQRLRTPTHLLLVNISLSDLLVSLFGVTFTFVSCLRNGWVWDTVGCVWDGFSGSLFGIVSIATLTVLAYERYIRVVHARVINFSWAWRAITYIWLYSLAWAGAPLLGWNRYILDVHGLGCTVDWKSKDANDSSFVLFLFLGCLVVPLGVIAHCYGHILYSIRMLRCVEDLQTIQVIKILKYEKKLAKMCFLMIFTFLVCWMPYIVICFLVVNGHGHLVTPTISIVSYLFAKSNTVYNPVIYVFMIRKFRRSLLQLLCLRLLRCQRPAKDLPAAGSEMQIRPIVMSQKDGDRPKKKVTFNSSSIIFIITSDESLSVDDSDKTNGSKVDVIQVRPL
T5 sequence (Q9Y5N1 whole entry): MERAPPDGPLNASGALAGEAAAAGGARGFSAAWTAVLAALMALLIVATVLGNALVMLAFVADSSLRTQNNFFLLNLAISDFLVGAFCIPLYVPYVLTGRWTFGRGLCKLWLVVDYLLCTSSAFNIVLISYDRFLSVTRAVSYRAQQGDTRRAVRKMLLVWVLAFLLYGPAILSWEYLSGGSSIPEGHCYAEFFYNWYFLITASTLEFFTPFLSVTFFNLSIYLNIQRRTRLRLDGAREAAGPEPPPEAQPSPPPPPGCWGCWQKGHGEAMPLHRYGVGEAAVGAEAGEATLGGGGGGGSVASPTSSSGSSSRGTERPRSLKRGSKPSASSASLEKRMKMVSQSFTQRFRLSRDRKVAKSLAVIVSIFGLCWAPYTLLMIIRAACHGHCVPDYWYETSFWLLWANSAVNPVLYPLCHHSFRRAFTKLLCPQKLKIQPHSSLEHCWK

Regarding `NC(=O)c1nc(F)cnc1O` [favipiravir, 6-fluoro-3-hydroxy-2-pyrazinecarboxamide], the activation at 100 µM is -1.02% in experiment [1] (GPCR CXCR6 (C-X-C motif chemokine receptor 6), 100μM, read-out: % GPCR activation compared to TPA); 0.315% in experiment [6] (setting [15]); -0.343% in [7] (setting [16]); 0.119% in [9] (setting [18]); -2.2% in experiment [10] (setting [19]); -1.15% in experiment [11] (setting [20]). In addition, the activation at 10 µM in experiment [2] (setting [12]) was -0.794%; in [3] (setting [13]), -3.44%; in experiment [5] (setting [14]), -2.23%; in [8] (setting [17]), -0.127%. In addition, the “% GPCR activation compared to TPA” value in experiment [4] was determined as 1.399%.

Turning to `CC(C)OC(=O)[C@H](C)N[P@](=O)(OC[C@H]1O[C@@H](n2ccc(=O)[nH]c2=O)[C@](C)(F)[C@@H]1O)Oc1ccccc1` [sofosbuvir], the activation at 10 µM in experiment [1] (setting [21]) was -0.824%; in [2] (setting [22]), 2.1%; in experiment [3] (setting [23]), -1.29%; in experiment [5] (setting [24]) it was -1.19%; in experiment [8] (setting [27]), -2.13%. The “% GPCR activation compared to TPA” value in [4] is listed as -2.192%. Moreover, the activation at 100 µM is -2.02% in experiment [6] (setting [25]); 0.266% in [7] (setting [26]); 0.675% in experiment [9] (setting [28]); -1.73% in experiment [10] (setting [29]); -0.539% in experiment [11] (setting [30]).

As for `CCC(CC)COC(=O)[C@H](C)N[P@](=O)(OC[C@H]1O[C@@](C#N)(c2ccc3c(N)ncnn23)[C@H](O)[C@@H]1O)Oc1ccccc1` [remdesivir], the activation at 10 µM was 0.837% in experiment [1] (setting [21]); 0.13% in [2] (setting [22]); -0.867% in [3] (setting [23]); -3.7% in experiment [5] (setting [24]); 2.55% in experiment [8] (setting [27]). Further, the “% GPCR activation compared to TPA” value in [4] amounted to 3.551%. Further, the activation at 100 µM was 0.0878% in experiment [6] (setting [25]); -0.473% in experiment [7] (setting [26]); 1.87% in [9] (setting [28]); 1.12% in experiment [10] (setting [29]); 0.0788% in experiment [11] (setting [30]).

As for `N#C[C@@]1(c2ccc3c(N)ncnn23)O[C@H](CO)[C@@H](O)[C@H]1O` [GS441524], the activation at 10 µM in [1] (setting [31]) is -0.956%; in experiment [2] (setting [12]), 0.113%; in [3] (setting [13]), -0.668%; in experiment [5] (setting [14]), -0.458%; in experiment [8] (setting [17]), 3.02%. Moreover, the “% GPCR activation compared to TPA” value in experiment [4] was 1.985%. Moreover, the activation at 100 µM in experiment [6] (setting [15]) was 0.59%; in experiment [7] (setting [16]) it was -0.281%; in experiment [9] (setting [18]), -0.745%; in [10] (setting [19]) it was -2.64%; in [11] (setting [20]) it was -0.88%.

With `CC(C)C(=O)OC[C@H]1O[C@@H](n2ccc(NO)nc2=O)[C@H](O)[C@@H]1O` [molnupiravir], the activation at 10 µM in [1] (setting [31]) was 0.979%; in experiment [2] (setting [12]) it was 0.0934%; in experiment [3] (setting [13]), 1.66%; in experiment [5] (setting [14]), -3.92%; in experiment [8] (setting [17]) it was -3.96%. The “% GPCR activation compared to TPA” value in [4] is listed as -2.923%. The activation at 100 µM in [6] (setting [15]) is -0.295%; in experiment [7] (setting [16]), -0.438%; in [9] (setting [18]), 0.374%; in experiment [10] (setting [19]), -2%; in experiment [11] (setting [20]) it was -1.55%.
